The structures appear in SMILES notation. Read-outs that look alike come from different tables or passages of the source.

The test system of assay [1] is stage II invasive breast cancer (ER+ subset). Description: Randomized clinical trial of two years of adjuvant tamoxifen vs no treatment (Swedish SBII:2a); recurrence-free survival by biomarker subgroup. Format: in vivo, human. Particulars: for HR RFS: ER+. An excerpt:
From 1986 to 1991, 564 patients enrolled in a a randomized clinical trial for adjuvant tamoxifen treatment in early breast cancer (Swedish SBII:2a)(15). Criteria for enrollment included premenopausal status or age less than 50 years, with stage II invasive breast cancer. Patients were randomized to receive two years of tamoxifen (n=276) or no treatment (control, n=288), and were followed for disease-free and overall survival, with a median follow-up of 13.9 years. A detailed description of the trial and results has previously been published (15,16).
For analysis of tamoxifen response, only the ER+ subset of patients were included (16). By IHC, a cut-off value of at least 10% nuclear immunoreactivity was used to classify patients as ER-positive.
The statistical calculations were performed using SPSS Version 13.0 (SPSS, Chicago, Ill.) and Stata Version 9.2 (StataCorp, College Station, Tex.). Pearson's correlation coefficient (R) was used to assess the correlation between log AQUA-EGFR scores from redundant tumor cores and Spearman's Rho to assess the correlation between AQUA-EGFR score and other variables. Recurrence-free survival (RFS) was chosen as endpoint in the present study. RFS included breast cancer specific death, distant, regional and local recurrences and all analyses were performed with the intention to treat rule. The AQUA-EGFR score was dichotomized at the median in order to avoid bias problems associated with cut-off optimization. Kaplan-Meier plots were used to illustrate the survival in high and low EGFR, respectively, and the log rank test to test for equality of survival curves. Hazard ratios were estimated using Cox regression. Proportional hazards assumptions were checked using Schoenfeld's test. The null hypothesis of equal treatment effects in high and low EGFR were evaluated using a Cox model with a term for the interaction between EGFR class and treatment. Cox models with continuous AQUA-EGFR score were also fitted. The original score and a logarithmic transformation of the score were evaluated. […] All p-values corresponded to two-sided tests and values less than 0.05 were considered significant.

Assay [2] has the same test system. Particulars: Cox univariate, tamoxifen vs control, cited from earlier work.

Take `CC/C(=C(\c1ccccc1)c1ccc(OCCN(C)C)cc1)c1ccccc1` [Tamoxifen]: the “HR RFS” value was 0.571 in assay [1] (Cox multivariate, Tamoxifen Treatment (+/-), n = 324 (available data in 186 patients)); 1.14 in assay [1] (Cox univariate, tamoxifen vs control, EGFR-AQUA High, n = 73); 0.43 in assay [1] (Cox univariate, tamoxifen vs control, EGFR-AQUA Low, n = 113); 0.73 in assay [1] (Cox univariate, tamoxifen vs control, EGFR-IHC High, n = 27); 0.57 in assay [1] (Cox univariate, tamoxifen vs control, EGFR-IHC Low, n = 232); 0.28 in assay [1] (Cox univariate, tamoxifen vs control, HER2-AQUA High, N = 10). Besides, the “HR RFS” value in assay [1] (Cox univariate, tamoxifen vs control, HER2-AQUA Low, N = 231) is 0.64; in assay [2] (HER2 IHC 0-2+ (Herceptest), N = 252), 0.64; in assay [2] (HER2 IHC 3+ (Herceptest), N = 23) it was 0.67. Moreover, the “Effect of two years of adjuvant tamoxifen on RFS (log rank, Kaplan-Meier)” value in assay [1] (ER+ patients with low EGFR expression (AQUA), n=113, p=0.01) is “significant effect”; in assay [1] (ER+ patients, EGFR high group (AQUA), n=73, p=0.69), “no treatment effect”. For the same molecule, the “10-year RFS” value in assay [1] (ER+ tamoxifen treated patients with high EGFR expression (AQUA)) was determined as 52%; in assay [1] (ER+ tamoxifen treated patients, EGFR low group (AQUA)), 78%. For the same molecule, the “Association of high EGFR expression with outcome in tamoxifen-treated patients” value in assay [1] (ER+ tamoxifen-treated patients, high vs low EGFR (AQUA), Log-Rank p=0.0411) is “shorter time to recurrence and breast cancer death”.

The record behind these values is patent publication US20090155767A1, “Methods for a predictive diagnostic test for tamoxifen” (priority 2007, published 2009).
